Data as given in US10472346B2, “Potent gamma-secretase modulators” (The General Hospital Coporation, priority 2014, dated 2019).

Each compound was assayed on Aβ42 (assay: Aβ42 IC50 assay (SHSYSY-APP cell-based screening, UCSD sandwich Aβ42 ELISA)).
From the text: FIG. 8: Representative concentration response curves of Compound 1 using our primary and orthogonal medium throughput SHSYSY-APP cell-based screening assays (10). Compounds are first screened two times in triplicate in our UCSD sandwich Aβ42 ELISA on sequential days and the average of the two assays must be within 3-fold of each other before being entered into the CDD relational database. The UCSD sandwich ELISA assay can easily handle 20 compounds per week. Compounds with Aβ42 IC50 values <100 nM continue through the testing funnel. The Z′ score and the % CV for the UCSD Aβ42 sandwich ELISA assay are 0.8 and 4, respectively. For the Meso Scale triplex assay the Z′ scores are 0.7, 0.9 and 0.6 Aβ42, Aβ40 and Aβ38, respectively and the % CV's are 7, 2 and 1 for Aβ42, Aβ40 and Aβ38, respectively. Aβ total peptides are measured using a sandwich ELISA.
Tabular Results of A1142 Assays Conducted on Compounds of Examples 5-102. Assays are Aβ42 IC50 (nM).

Compound	IC50
COc1nc(-c2cc(C)c(NC(C)c3nc4ccccc4o3)nn2)ccc1-n1cnc(C)c1 (racemic) [Example 74, (+/−)—N-(1-(benzo[d]oxazol-2-yl)ethyl)-6-(6-methoxy-5-(4-methyl-1H-imidazol-1-yl)pyridin-2-yl)-4-methylpyridazin-3-amine]	42 nM
CCc1cc(-c2ccc(-n3cnc(C)c3)c(OC)n2)nnc1N[C@@H](C)c1ccccc1 [Example 7, (S)-4-ethyl-6-(6-methoxy-5-(4-methyl-1H-imidazol-1-yl)pyridin-2-yl)-N-(1-phenylethyl)pyridazin-3-amine]	5.5 nM
CCc1cc(-c2ccc(-n3cnc(C)c3)c(OC)n2)nnc1NCc1ccc(F)cc1 [Example 8, 4-ethyl-N-(4-fluorobenzyl)-6-(6-methoxy-5-(4-methyl-1H-imidazol-1-yl)pyridin-2-yl)pyridazin-3-amine]	33 nM
CCc1cc(-c2ccc(-n3cnc(C)c3)c(OC)n2)nnc1N[C@H](C)c1ccccc1 [Example 9, (R)-4-ethyl-6-(6-methoxy-5-(4-methyl-1H-imidazol-1-yl)pyridin-2-yl)-N-(1-phenylethyl)pyridazin-3-amine]	46 nM
COc1nc(-c2cc(C(C)C)c(N[C@@H](C)c3ccccc3)nn2)ccc1-n1cnc(C)c1 [Example 14, (S)-4-isopropyl-6-(6-methoxy-5-(4-methyl-1H-imidazol-1-yl)pyridin-2-yl)-N-(1-phenylethyl)pyridazin-3-amine]	7.2 nM
COc1nc(-c2nnc(N[C@@H](C)c3ccccc3)c(C)c2C)ccc1-n1cnc(C)c1 [Example 17, (S)-6-(6-methoxy-5-(4-methyl-1H-imidazol-1-yl)pyridin-2-yl)-4,5-dimethyl-N-(1-phenylethyl)pyridazin-3-amine]	37 nM
COc1nc(-c2nnc(NCc3ccc(F)cc3)c(C)c2C)ccc1-n1cnc(C)c1 [Example 18, N-(4-fluorobenzyl)-6-(6-methoxy-5-(4-methyl-1H-imidazol-1-yl)pyridin-2-yl)-4,5-dimethylpyridazin-3-amine]	82 nM
COc1nc(-c2ccc(N[C@@H](C)c3ccccc3)nn2)ccc1-n1cnc(C)c1 [Example 22, (S)-6-(6-methoxy-5-(4-methyl-1H-imidazol-1-yl)pyridin-2-yl)-N-(1-phenylethyl)pyridazin-3-amine]	16 nM
COc1nc(-c2ccc(NC(C)(C)c3ccc(F)cc3)nn2)ccc1-n1cnc(C)c1 [Example 23, N-(2-(4-Fluorophenyl)propan-2-yl)-6-(6-methoxy-5-(4-methyl-1H-imidazol-1-yl)pyridin-2-yl)pyridazin-3-amine]	22 nM
COc1nc(-c2nnc(N[C@@H](C)c3ccc(F)cc3)c3c2CCC3)ccc1-n1cnc(C)c1 [Example 29, (S)—N-(1-(4-Fluorophenyl)ethyl)-4-(6-methoxy-5-(4-methyl-1H-imidazol-1-yl)pyridin-2-yl)-6,7-dihydro-5H-cyclopenta[d]pyridazin-1-amine]	12.8 nM
COc1nc(-c2cc(C)c(N[C@@H](C)c3cccc(Cl)c3)nn2)ccc1-n1cnc(C)c1 [Example 33, (S)—N-(1-(3-chlorophenyl)ethyl)-6-(6-methoxy-5-(4-methyl-1H-imidazol-1-yl)pyridin-2-yl)-4-methylpyridazin-3-amine]	6.8 nM
COc1nc(-c2cc(C)c(N[C@@H](C)c3ccccc3)nn2)ccc1-n1cnc(C)c1 [Example 35, (S)-6-(6-methoxy-5-(4-methyl-1H-imidazol-1-yl)pyridin-2-yl)-4-methyl-N-(1-phenylethyl)pyridazin-3-amine]	12 nM
COc1nc(-c2cc(C)c(N[C@@H](C)c3ccc(F)c(F)c3)nn2)ccc1-n1cnc(C)c1 [Example 39, (S)—N-(1-(3,4-difluorophenyl)ethyl)-6-(6-methoxy-5-(4-methyl-1H-imidazol-1-yl)pyridin-2-yl)-4-methylpyridazin-3-amine]	6.5 nM
COc1ccccc1[C@H](C)Nc1nnc(-c2ccc(-n3cnc(C)c3)c(OC)n2)cc1C [Example 41, (S)-6-(6-methoxy-5-(4-methyl-1H-imidazol-1-yl)pyridin-2-yl)-N-(1-(2-methoxyphenyl)ethyl)-4-methylpyridazin-3-amine]	17.5 nM
COc1nc(-c2cc(C)c(N[C@@H](C)c3cc(C(F)(F)F)cc(C(F)(F)F)c3)nn2)ccc1-n1cnc(C)c1 [Example 43, (S)—N-(1-(3,5-bis(trifluoromethyl)phenyl)ethyl)-6-(6-methoxy-5-(4-methyl-1H-imidazol-1-yl)pyridin-2-yl)-4-methylpyridazin-3-amine]	7.5 nM
COc1cccc([C@H](C)Nc2nnc(-c3ccc(-n4cnc(C)c4)c(OC)n3)cc2C)c1 [Example 44, (S)-6-(6-methoxy-5-(4-methyl-1H-imidazol-1-yl)pyridin-2-yl)-N-(1-(3-methoxyphenyl)ethyl)-4-methylpyridazin-3-amine]	10.5 nM

Further lines, results first:

IC50	Compound
29 nM	COc1nc(-c2cc(C)c(NC(C)Cc3ccc(F)cc3)nn2)ccc1-n1cnc(C)c1 (racemic) [Example 54, (+/−)—N-(1-(4-fluorophenyl)propan-2-yl)-6-(6-methoxy-5-(4-methyl-1H-imidazol-1-yl)pyridin-2-yl)-4-methylpyridazin-3-amine]
7.8 nM	CCc1cc(-c2ccc(-n3cnc(C)c3)c(OC)n2)nnc1N[C@@H](C)c1ccc(F)cc1 [Example 5, (S)-4-Ethyl-N-(1-(4-fluorophenyl)ethyl)-6-(6-methoxy-5-(4-methyl-1H-imidazol-1-yl)pyridin-2-yl)pyridazin-3-amine]
47.5 nM	CCc1cc(-c2ccc(-n3cnc(C)c3)c(OC)n2)nnc1N[C@H](C)c1ccc(F)cc1 [Example 10, (R)-4-ethyl-N-(1-(4-fluorophenyl)ethyl)-6-(6-methoxy-5-(4-methyl-1H-imidazol-1-yl)pyridin-2-yl)pyridazin-3-amine]
7.5 nM	COc1nc(-c2cc(C(C)C)c(N[C@@H](C)c3ccc(F)cc3)nn2)ccc1-n1cnc(C)c1 [Example 11, (S)—N-(1-(4-fluorophenyl)ethyl)-4-isopropyl-6-(6-methoxy-5-(4-methyl-1H-imidazol-1-yl)pyridin-2-yl)pyridazin-3-amine]
67 nM	COc1nc(-c2nnc(N[C@@H](C)c3ccc(F)cc3)c(C)c2C)ccc1-n1cnc(C)c1 [Example 15, (S)—N-(1-(4-Fluorophenyl)ethyl)-6-(6-methoxy-5-(4-methyl-1H-imidazol-1-yl)pyridin-2-yl)-4,5-dimethylpyridazin-3-amine]
240 nM	COc1nc(-c2cc(C)c(N(C)[C@@H](C)c3ccc(F)cc3)nn2)ccc1-n1cnc(C)c1 [Example 19, (S)—N-(1-(4-fluorophenyl)ethyl)-6-(6-methoxy-5-(4-methyl-1H-imidazol-1-yl)pyridin-2-yl)-N,4-dimethylpyridazin-3-amine]
132 nM	CCN(c1nnc(-c2ccc(-n3cnc(C)c3)c(OC)n2)cc1C)[C@@H](C)c1ccc(F)cc1 [Example 20, (S)—N-ethyl-N-(1-(4-fluorophenyl)ethyl)-6-(6-methoxy-5-(4-methyl-1H-imidazol-1-yl)pyridin-2-yl)-4-methylpyridazin-3-amine]
61 nM	CC[C@@H](c1ccc(F)cc1)N(C)c1nnc(-c2ccc(-n3cnc(C)c3)c(OC)n2)cc1C [Example 21, (S)—N-(1-(4-fluorophenyl)propyl)-6-(6-methoxy-5-(4-methyl-1H-imidazol-1-yl)pyridin-2-yl)-N,4-dimethylpyridazin-3-amine]
21 nM	COc1nc(-c2nnc(N[C@@H](C)c3ccc(F)cc3)cc2C)ccc1-n1cnc(C)c1 [Example 27, (S)—N-(1-(4-fluorophenyl)ethyl)-6-(6-methoxy-5-(4-methyl-1H-imidazol-1-yl)pyridin-2-yl)-5-methylpyridazin-3-amine]
5.8 nM	COc1nc(-c2cc(C)c(N[C@@H](C)c3ccc(Cl)cc3)nn2)ccc1-n1cnc(C)c1 [Example 31, (S)—N-(1-(4-chlorophenyl)ethyl)-6-(6-methoxy-5-(4-methyl-1H-imidazol-1-yl)pyridin-2-yl)-4-methylpyridazin-3-amine]
6.5 nM	COc1ccc([C@H](C)Nc2nnc(-c3ccc(-n4cnc(C)c4)c(OC)n3)cc2C)cc1 [Example 36, (S)-6-(6-methoxy-5-(4-methyl-1H-imidazol-1-yl)pyridin-2-yl)-N-(1-(4-methoxyphenyl)ethyl)-4-methylpyridazin-3-amine]
6.3 nM	COc1nc(-c2cc(C)c(N[C@@H](C)c3ccc(C(F)(F)F)cc3)nn2)ccc1-n1cnc(C)c1 [Example 37, (S)-6-(6-methoxy-5-(4-methyl-1H-imidazol-1-yl)pyridin-2-yl)-4-methyl-N-(1-(4-(trifluoromethyl)phenyl)ethyl)pyridazin-3-amine]
7 nM	COc1nc(-c2cc(C)c(N[C@@H](C)c3cccc(F)c3)nn2)ccc1-n1cnc(C)c1 [Example 38, (S)—N-(1-(3-fluorophenyl)ethyl)-6-(6-methoxy-5-(4-methyl-1H-imidazol-1-yl)pyridin-2-yl)-4-methylpyridazin-3-amine]
6.5 nM	CC[C@H](Nc1nnc(-c2ccc(-n3cnc(C)c3)c(OC)n2)cc1C)c1ccc(F)cc1 [Example 40, (S)—N-(1-(4-fluorophenyl)propyl)-6-(6-methoxy-5-(4-methyl-1H-imidazol-1-yl)pyridin-2-yl)-4-methylpyridazin-3-amine]
7.5 nM	COc1nc(-c2cc(C)c(N[C@@H](C)c3ccc(C)cc3)nn2)ccc1-n1cnc(C)c1 [Example 42, (S)-6-(6-methoxy-5-(4-methyl-1H-imidazol-1-yl)pyridin-2-yl)-4-methyl-N-(1-(p-tolyl)ethyl)pyridazin-3-amine]
